In patent publication US9938279B2, “Method for treating disease or condition susceptible to amelioration by AMPK activators and compounds of formula which are useful to activate AMP-activated protein kinase (AMPK)” (ENERGENESIS BIOMEDICAL CO., LTD, priority 2013, dated 2018):

Columns and labels:
AMPK [1] = experiment: AMPK activation assay (western blot phospho-AMPK Thr172) in Hep G2; assay type: cell-based, human; details: Hep G2 cells, 30 min treatment
Protocol: (§1) Effects of compounds on AMPK activation were analyzed in mouse muscle cell C2C12, mouse fibroblast 3T3-L1 and human hepatocyte Hep G2. Those cell lines were cultured in high-glucose Dulbecco's modified Eagle's medium (DMEM) containing 10% fetal bovine serum (FBS), 4 mM L-glutamine, 2 mM sodium pyruvate and 1% penicillin/streptomycin (Invitrogen GibcoBRL, Carlsbad, Calif., USA) at 37° C. under 5% CO2. Cells were plated at 3×10^5 per well (6-well plate). 24 h after plating, cells were treated with indicated compounds for 30 min followed by cell lysis and western blot analysis. Equal amount of protein were separated by SDS-PAGE and then electroblotted on to PVDF membranes. Membranes were blocked with 3% BSA in PBS for 60 min and incubated with anti-phospho-AMPK (Thr172) antibody (1:2,000, Cell signaling), anti-AMPK antibody (1:2,000, Cell signaling), anti-Glut4 antibody (1:1,000, Millipore) or anti-actin antibody (1:5,000; Chemicon International) at 4° C. overnight followed by the corresponding secondary antibody for 1 h at room temperature (RT). Immunoreactive bands were detected by enhanced chemiluminescence (ECL; Pierce, Rockford, Ill., USA) and recorded using Kodakfilm (Rochester, N.Y., USA). The detected signals were scanned and then quantified by using TotalLab Quant software (TotalLab).

AMPK [2] = experiment: AMPK activation assay (western blot phospho-AMPK Thr172) in 3T3-L1; assay type: cell-based, mouse; details: 3T3-L1 cells, 30 min treatment
Protocol: as §1

AMPK [3] = experiment: AMPK activation assay (western blot phospho-AMPK Thr172) in C2C12; assay type: cell-based, mouse; details: C2C12 cells, 30 min treatment
Protocol: as §1

| SMILES | AMPK activation (% to control) Hep G2 (AMPK [1]; 1 microM) | AMPK activation (% to control) Hep G2 (AMPK [1]; 10 microM) | AMPK activation (% to control) Hep G2 (AMPK [1]; 100 microM) | AMPK activation (% to control) Hep G2 (AMPK [1]; 200 microM) | AMPK activation (% to control) 3T3-L1 (AMPK [2]; 1 microM) | AMPK activation (% to control) 3T3-L1 (AMPK [2]; 10 microM) | AMPK activation (% to control) 3T3-L1 (AMPK [2]; 100 microM) | AMPK activation (% to control) 3T3-L1 (AMPK [2]; 200 microM) | AMPK activation (% to control) C2C12 (AMPK [3]; 1 microM) | AMPK activation (% to control) C2C12 (AMPK [3]; 10 microM) | AMPK activation (% to control) C2C12 (AMPK [3]; 100 microM) | AMPK activation (% to control) C2C12 (AMPK [3]; 200 microM) |
| --- | --- | --- | --- | --- | --- | --- | --- | --- | --- | --- | --- | --- |
| Nc1nc(N)c2[nH]cnc2n1 [2,6-diaminopurine] | 113 % to control | 155 % to control | 274 % to control | 397 % to control | 108 % to control | 149 % to control | 288 % to control | 335 % to control | 116 % to control | 181 % to control | 281 % to control | 381 % to control |
| Oc1nc(O)c2[nH]cnc2n1 [2,6-dihydroxypurine] | 114 % to control | 139 % to control | 198 % to control | 302 % to control | 109 % to control | 132 % to control | 205 % to control | 361 % to control | 105 % to control | 115 % to control | 231 % to control | 347 % to control |
| Sc1nc(S)c2[nH]cnc2n1 [2,6-dimercaptopurine] | 110 % to control | 133 % to control | 244 % to control | 366 % to control | 102 % to control | 98 % to control | 178 % to control | 260 % to control | 104 % to control | 117 % to control | 215 % to control | 298 % to control |
| COc1cccc(CNc2nc(N)nc3nc[nH]c23)c1OC [2-amino-6-(2,3-dimethoxybenzylamino)purine] | 115 % to control | 127 % to control | 229 % to control | 318 % to control | 118 % to control | 156 % to control | 250 % to control | 347 % to control | 106 % to control | 144 % to control | 263 % to control | 334 % to control |
| COc1cc(CNc2nc(C)nc3nc[nH]c23)cc(OC)c1OC [2-methyl-6-(3,4,5-trimethoxybenzylamino)purine] | 112 % to control | 168 % to control | 270 % to control | 359 % to control | 115 % to control | 141 % to control | 254 % to control | 346 % to control | 106 % to control | 117 % to control | 211 % to control | 361 % to control |
| O=C1CCNC(=O)N1 [5,6-dihydrouracil] | 120 % to control | 167 % to control | 274 % to control | 360 % to control | 116 % to control | 159 % to control | 268 % to control | 341 % to control | 108 % to control | 114 % to control | 207 % to control | 326 % to control |
| Clc1cccc(Nc2ncnc3nc[nH]c23)c1 [6-(3-chloroanilino)purine] | 106 % to control | 109 % to control | 212 % to control | 319 % to control | 116 % to control | 130 % to control | 217 % to control | 301 % to control | 108 % to control | 118 % to control | 186 % to control | 307 % to control |
| Nc1cc[nH]c(=O)n1 [Cytosine] | 117 % to control | 164 % to control | 281 % to control | 359 % to control | 117 % to control | 127 % to control |  | 310 % to control | 119 % to control | 158 % to control | 253 % to control | 361 % to control |
| CN(C)c1nc(O)c2[nH]cnc2n1 [Example 2-Dimethylamino-6-hydroxypurine, 2-Dimethylamino-6-hydroxypurine] | 117 % to control | 132 % to control | 185 % to control | 218 % to control | 106 % to control | 108 % to control | 205 % to control | 264 % to control | 105 % to control | 111 % to control | 229 % to control | 298 % to control |
| CC(C)CCNc1nc(N)nc2nc[nH]c12 [Example 2-amino-6-isopentylaminopurine, 2-amino-6-isopentylaminopurine] | 117 % to control | 174 % to control | 250 % to control | 341 % to control | 110 % to control | 169 % to control | 271 % to control | 361 % to control | 104 % to control | 114 % to control | 238 % to control | 305 % to control |
| Nc1nc(S)c2[nH]cnc2n1 [Example 2-amino-6-mercaptopurine, 2-amino-6-mercaptopurine] | 112 % to control | 124 % to control | 209 % to control | 261 % to control | 105 % to control | 119 % to control | 251 % to control | 277 % to control | 118 % to control | 122 % to control | 228 % to control | 284 % to control |
| CNc1nc(N)nc2nc[nH]c12 [Example 2-amino-6-methylaminopurine, 2-amino-6-methylaminopurine] | 114 % to control | 139 % to control | 230 % to control | 348 % to control | 109 % to control | 135 % to control | 220 % to control | 332 % to control | 119 % to control | 187 % to control | 215 % to control | 351 % to control |
